Source: ChEMBL document CHEMBL5055619, “Tetrahydrofuran-Based Transient Receptor Potential Ankyrin 1 (TRPA1) Antagonists: Ligand-Based Discovery, Activity in a Rodent Asthma Model, and Mechanism-of-Action via Cryogenic Electron Microscopy” (J Med Chem, 2021)
pIC50: −log10 of the molar value. Values after ≈ are worked out from the molar mass of the structure shown.

Assays:
[1] = Metabolic stability in human liver microsomes assessed as clearance by LC/MS-MS analysis; format: ADME, Microsome
[2] = Antagonist activity at human TRPA1 expressed in CHO cells assessed as cinnamaldehyde-induced calcium flux measured after 90 mins by FLIPR assay; format: cell-based; settings: 1.5 h
[3] = Lipophilicity, logD of compound; format: physicochemical; settings: octanol/water
[4] = Metabolic stability in rat liver microsomes assessed as clearance by LC/MS-MS analysis; format: ADME, Microsome
[5] = Antagonist activity at rat TRPA1 expressed in CHO cells assessed as cinnamaldehyde-induced calcium flux measured after 90 mins by FLIPR assay; format: cell-based; settings: 1.5 h
[6] = Kinetic solubility of the compound; format: physicochemical; settings: read-out: Kinetic_solubility

Row | SMILES | CLhep predicted [1] | pIC50 [2] | logD [3] | CLhep predicted [4] | pIC50 [5] | solubility kinetic [6]
1 | Cn1cnc2ncn(Cc3nc(CCc4ccc(Cl)cc4)no3)c(=O)c21 | 12 mL/min/kg | 7.00 | 1.9 | 35 mL/min/kg | 7.10 | –
2 | Cn1cnc2ncn(Cc3nc([C@@H]4CO[C@@H](c5ccc(F)cc5)C4)no3)c(=O)c21 | 4.3 mL/min/kg | 8.12 | – | 9 mL/min/kg | – | –
3 | O=c1c2cccnc2ncn1Cc1nc([C@H]2[C@@H]3CN(c4cc(Cl)ccn4)C[C@@H]32)no1 | 10 mL/min/kg | 7.12 | 2.4 | 13 mL/min/kg | – | –
4 | O=c1c2cccnc2cnn1Cc1nc([C@H]2[C@@H]3CN(c4cc(Cl)ccn4)C[C@@H]32)no1 | 14 mL/min/kg | 7.27 | 2.7 | 27 mL/min/kg | – | –
5 | Cn1cnc2ncn(Cc3nn(CCCOc4cccc(Cl)c4)c(=O)o3)c(=O)c21 | 16 mL/min/kg | 7.85 | 1.3 | 44 mL/min/kg | – | –
6 | Cn1cnc2ncn(Cc3nc([C@@H]4[C@@H]5Cc6c(Cl)cccc6[C@@H]54)no3)c(=O)c21 | – | 7.49 | 2.6 | – | – | < 1 µM
7 | Cn1cnc2ncn(Cc3nc([C@H]4[C@@H]5C=C(c6ccccc6)C[C@@H]54)no3)c(=O)c21 | – | 8.72 | 2.7 | – | – | 1.4 µM (≈ 0.541 µg/mL)
8 | Cn1cnc2ncn(Cc3nn([C@H]4CC[C@H](c5ccc(Cl)cc5)CC4)c(=O)o3)c(=O)c21 | 4.3 mL/min/kg | < 4.70 | 2.6 | 19 mL/min/kg | – | –
9 | Cn1cnc2ncn(Cc3nc([C@H]4[C@@H]5C[C@H](c6ccccc6)C[C@@H]54)no3)c(=O)c21 | – | 5.72 | 2.7 | – | – | 54 µM (≈ 21 µg/mL)
